Entries after “also recorded” stand apart in the source; their conditions may differ.
Legend:
Type in all cases: in vivo, C57BL/6 mice
hair cycle = test: Hair cycle analysis after topical treatment of shaved dorsal skin of telogen-stage mice; conditions: topical treatment during telogen, macroscopic and H&E follicle morphology (FIG. 2A-2C)
Description: (§1) Wildtype male and female 49-day old C57BL/6 mice were obtained from Jackson Laboratories for all topical experiments. All animals were maintained in UCLA's Division of Laboratory Medicine (DLAM)-approved pathogen-free barrier facilities and procedures were performed using protocols that adhere to the standards of the UCLA Animal Research Committee (ARC), Office of Animal Research Oversight (OARO), and the National Institutes of Health (NIH).
(§2) All drugs were suspended in DMSO and aliquoted at approximately 5 times IC50 or EC50 for the purposes of penetrating the epidermal barrier upon in vivo application. Aliquots were then mixed with the appropriate volume of Premium Lecithin Organogel (PLO) Base (Transderma Pharmaceuticals Inc.) and topically applied onto the shaved dorsal skin of 49 day old telogen-stage mice. Three experiment timepoints were used: acute treatment (two doses across 48 hours), 1 week treatment (three doses across five days) or long-term studies (one dose three times a week for approximately 1.5 weeks). Full-thickness dorsal skin was collected for histological analysis, cryosectioning, RNA isolation, and/or for epidermal stem cell isolation according to well-established FACS protocol.
Hair cycles were assessed macroscopically by observational and photographic documentation. A scale was established to grade hair cycle stage: 1) telogen (pink, white skin when dorsally shaved); 2) pigmentation (broad blue/grey pigment spots/patches on shaved dorsal area); 3) hair growth (dark pigmentation coupled with small patches of fur); 4) anagen (dark, full patches of fur within dorsal area) in relation to number of doses and elapsed time of treatment. H&E images of all treatment conditions were imaged at 20× magnification to assess morphological changes in control and treated skin. Hair cycle stages were also evaluated by follicular morphology into respective telogen, telogen-to-anagen transition, or anagen categories.
A set of full-thickness skin samples were obtained from post-mortem tissue harvesting, fixed overnight in 4% paraformaldehyde, and then dehydrated for paraffin embedding and slide generation; hematoxylin and eosin staining according to standard protocol. For immunohistochemistry, formalin-fixed, paraffin-embedded tissue slides were cleared and rehydrated through a series of ethanol washes. Antigen retrieval (20 min in pressure cooker, microwaved at 100 power) was performed with 10 mM citrate. Slides were incubated in hydrogen peroxide (30 min at 4 C) and then blocked with 10% goat serum/0.1% tween for 1 hour at room temperature. Primary antibodies were added and incubated overnight. The following antibodies were used—rabbit pCreb (Cell Signaling 9198, 1:800); rabbit Sox9 (Abcam 185966, 1:800); rabbit Ki67 sp6 (Abcam 16667, 1:50); rabbit PCNA (Cell Signaling 13110, 1:700); rabbit cFos (Abcam 7963, 1:100). Sections were washed the following day with 0.1% PBST and incubated with rabbit secondary HRP-labeled polymer (Dako) for 1 hour at room temperature, and then quickly washed with 0.1% PBST and PBS. AEC chromogen (Vector) was used for the colometric development reaction. Slides were then briefly counterstained with hemotoxylin, mounted with Faramount Aqueous Mounting Media (Dako) and sealed for subsequent visualization by light microscopy.
Bright-field immunohistochemistry and hematoxylin/eosin-stained images were captured using an Olympus BX51 light microscope at 20× magnification or 40× using oil immersion.

[1] = test system: lactate dehydrogenase (Ldh); test: Ldh activity assay (in situ and plate reader) on treated skin/epidermis; conditions: epidermis isolated from treated male or female animals (FIG. 4A)
Description: as §1, §2

Ldha protein, pCreb = test: Western blot of epidermis from treated animals for pCreb and Ldha protein; conditions: epidermis from treated animals (FIG. 4C)
Description: Wildtype male and female 49-day old C57BL/6 mice were obtained from Jackson Laboratories for all topical experiments. All animals were maintained in UCLA's Division of Laboratory Medicine (DLAM)-approved pathogen-free barrier facilities and procedures were performed using protocols that adhere to the standards of the UCLA Animal Research Committee (ARC), Office of Animal Research Oversight (OARO), and the National Institutes of Health (NIH). […] All drugs were suspended in DMSO and aliquoted at approximately 5 times IC50 or EC50 for the purposes of penetrating the epidermal barrier upon in vivo application. […] Three experiment timepoints were used: acute treatment (two doses across 48 hours), 1 week treatment (three doses across five days) or long-term studies (one dose three times a week for approximately 1.5 weeks). Full-thickness dorsal skin was collected for histological analysis, cryosectioning, RNA isolation, and/or for epidermal stem cell isolation according to well-established FACS protocol.

Creb (pCreb) = test: Immunohistochemistry of treated skin for Creb signaling, HFSC and proliferation markers
Description: as §1
as §2, with “protocol. […]” for “protocol.”

SMILES | effect on hair cycle progression / reentry into anagen (hair cycle) | effect on hair cycle progression / reentry into anagen (hair cycle; listed as H-89) | relative Ldh activity in lysed epidermis [1] | Creb activation (pCreb) (western blot) (Ldha protein, pCreb) | activation of Creb (pCreb) by immunohistochemistry (Creb (pCreb); acute 48 hours topical treatment, HFSCs and IFE (FIG. 3B)) | canonical Creb target expression (cFos staining) (Creb (pCreb); acute treatment (FIG. 3B))
COc1ccc(NC(=O)CSc2nc3c(cc2C#N)=CC2OCCOC2C=3)c(OC)c1 (stereo not shown) [#61] | accelerated reentry into anagen; also recorded: strongly accelerate the hair cycle; also recorded: accelerated hair growth |  |  |  |  | 
O=S(=O)(NCCNC/C=C/c1ccc(Br)cc1)c1cccc2cnccc12 [H89, reference compound] | slowed hair cycle progression; also recorded: delays reentry into anagen; also recorded: slowed the hair cycle dramatically | delayed reentry into anagen | did not demonstrate altered Ldh activity | inhibition of Creb |  | 
COc1ccccc1NC(=O)CSc1nc2c(cc1C#N)=CC1OCCOC1C=2 (stereo not shown) [#44] | accelerated reentry into anagen; also recorded: strongly accelerate the hair cycle; also recorded: accelerated hair growth |  | high Ldh activity |  | activation of Creb (pCreb) in HFSCs (and IFE) | induced levels of transcript for canonical Creb targets
CCOc1ccc(OCC)c(NC(=O)CSc2nc3c(cc2C#N)=CC2OCCOC2C=3)c1 (stereo not shown) [#62] | strongly accelerate the hair cycle |  |  |  |  | 
